The values below come from patent publication US12551541B2, “Albumin bound macromolecule tri-agonist activating GLP 1/GIP/glucagon receptors and methods therefor” (AlbuNext, LLC, priority 2023, dated 2026).

The conditions of data set [1]: 0.16 pmol/kg per minute; cited from earlier work.
For data set [2] the following is noted: monotherapy, cited from earlier work.
For the next data set, the target named is GLP-1 receptor (Homo sapiens, UniProt P43220). As to conditions: cited from earlier work.
The conditions of data set [3]: in vivo; cited from earlier work.
Data set [4] concerns DIO (diet induced obesity) mice. The data set can be described thus: DIO (diet induced obesity) mice, single subcutaneous injection, NASH. As to conditions: single dosage of 100 nmol/kg, over 26 days. The data set is classed as in vivo. As for the experimental part:
In still further experiments to confirm that contemplated compounds presented herein are also effective as modulators for hepatic metabolism, and particularly in the treatment and even at least partial reversion of NASH (non-alcoholic […]), the inventors tested selected compounds in DIO (diet induced obesity) mice. […] The body weight of all treated animals was recorded over 26 days, and average body weight over time for 16 and 26 days are shown in FIG. 34A and FIG. 34B, respectively.
To investigate liver function and metabolism, liver weight was determined at the end of the study and results are shown in FIG. 38. […] In addition, liver function was assessed at the end of the study by testing AST (aspartate aminotransferase) and ALT (alanine transaminase).
In still further tests for hepatic metabolic modulation, the inventors also determined total cholesterol and LDL cholesterol at the end of the study, and exemplary results are shown in FIG. 41 (for total cholesterol) and FIG. 42 (for LDL cholesterol). […] As diet induced obesity is also often associated with inflammation, the inventors also measured levels of selected pro-inflammatory cytokines. Here, IL-1α and IL-6 levels were determined at the end of the study.

Usually half-life stands for the time needed for the level to fall by half in the phase considered.

Chain of GLP-1 receptor (P43220 24-463, species assumed): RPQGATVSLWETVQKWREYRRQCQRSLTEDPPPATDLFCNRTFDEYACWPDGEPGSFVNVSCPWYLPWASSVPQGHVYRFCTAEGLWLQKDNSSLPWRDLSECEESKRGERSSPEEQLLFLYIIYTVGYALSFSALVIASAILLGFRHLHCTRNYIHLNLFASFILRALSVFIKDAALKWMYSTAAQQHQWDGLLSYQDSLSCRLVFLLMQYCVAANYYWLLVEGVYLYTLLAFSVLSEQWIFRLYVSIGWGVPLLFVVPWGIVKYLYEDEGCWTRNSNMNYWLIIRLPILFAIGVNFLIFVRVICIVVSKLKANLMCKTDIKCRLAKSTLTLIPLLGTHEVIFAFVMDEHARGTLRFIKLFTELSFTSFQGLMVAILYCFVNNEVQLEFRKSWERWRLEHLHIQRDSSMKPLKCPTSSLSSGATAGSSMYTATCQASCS

As for “GLP-1: naturally occurring hormone released by L cells in the lower intestine”, the adverse events entry in data set [1] is “vomiting within eight minutes”.
Take albiglutide: the “decrease in HbA1c from baseline” value in data set [2] (30 mg weekly dose, week 52) is recorded as −0.7%. Further, the “change from baseline of HbA1c” value in data set [2] (50 mg weekly dose) was −0.9%. Further, at GLP-1 receptor, the GLP-1 receptor affinity was 20 nM. Further, the half-life in data set [3] is 140 to 190 h.
On to semaglutide [reference compound], for which the body weight entry in data set [4] was “effective in reduction of body weight”.
